Source: patent US20250057865A1, “ANTIVIRAL SUPPLEMENT FORMULATIONS FOR HERPESVIRUS INFECTIONS” (priority 2023, published 2025)

Columns and labels:
HSV-1 R8411 = test: microbe, parasite or virus in culture; format: cell-based, herpes simplex virus 1; details: for efficacy against HSV-1 (in words): ARPE-19, 24 h post-infection; for EC50: Human alphaherpesvirus 1, ARPE-19, 24 h, 24 h; for SI (CC50/EC50): Table 10, HSV1, buffered medium
Procedure: (§1) Next, cells were infected at a MOI of 0.05 with either HSV-1 R8411 or HSV-2-Luc, both which expresses firefly luciferase, in either standard DMEM medium (10% FBS) or standard DMEM medium (10% FBS) buffered with 3.024 g/L sodium bicarbonate. Treatments were prepared in the different medium conditions and added at the time of infection. All assays were imaged at 24 h post-infection and/or treatment. The compounds tested for this experiment included: Test Composition in unbuffered medium, Test Composition in buffered medium, acyclovir in unbuffered medium and acyclovir in buffered medium. All graphs, EC50, CC50, and CC50/EC50 calculations were performed using GraphPad software based on Lysine equivalent concentrations.
(§2) HSV-1 or HSV-2 infected cells were measured by bioluminescence imagining in the dose-response assay. Each plate contained a set of untreated wells in each media condition (unbuffered or buffered) to be used as baseline. Test composition concentrations ranged from 3.2 μM to 50 mM in a 1:5 dilution series. Acyclovir concentrations ranged from 0.00256 to 40 μM in a 1:5 dilution series.
(§3) Assays were performed as previously described. […] Next, cells were infected at a MOI of approximately 0.05 with either HSV-1 R8411 or HSV-2 MS-Luciferase, both which expresses firefly luciferase, in DMEM (10% FBS) buffered with 3.024 g/L sodium bicarbonate. Antiviral compounds were prepared in the buffered media, added at the time of infection, and remained for the duration of the assay. Both HSV1 and HSV2 cultures were scanned at 24 h post-infection. Each plate contained untreated wells as a baseline for comparison. The solutions evaluated included original Test Composition and various sets of its components, as well as acyclovir (ACV; control). The table below includes a breakdown of all the different component formulations. Graphs were produced, EC50, and CC50 calculations were performed using GraphPad. Concentrations for Test Composition and its components ranged from 3.2 μM to 50 mM in a 1:5 dilution series. Acyclovir concentrations ranged from 0.00256 to 40 μM in a 1:5 dilution series.

HSV-2-Luc = test: microbe, parasite or virus in culture; format: cell-based, herpes simplex virus 2; details: for efficacy against HSV-2 (in words): ARPE-19, 24 h post-infection; for EC50: Human alphaherpesvirus 2, ARPE-19, 24 h, 24 h; for SI (CC50/EC50): Table 10, HSV2, buffered medium
Procedure: as §1, §2, §3

in vitro [1] = format: cell-based; details: human, Table 10 HSV1 half, ARPE-19, buffered medium
Procedure: as §3

VZV-ORF57-Luc = test: microbe, parasite or virus in culture; format: cell-based, varicella zoster virus; details: for EC50: Human alphaherpesvirus 3, ARPE-19, 72 h, 72 h
Procedure: (§4) VZV- or HCMV-infected cells were measured by bioluminescence imagining in the efficacy or dose-response assay. Assays were performed as previously described, with a few modifications. […] Next, cells were infected at a MOI of approximately 0.05 with either VZV-ORF57-Luc or HCMV-eGFP-fLuc, both which expresses firefly luciferase, in either standard DMEM (10% FBS) or DMEM (10% FBS) buffered with 3.024 g/L sodium bicarbonate.
(§5) Antiviral Test Compositions were prepared in the two media, added at the time of infection, and remained for the duration of the assay. VZV cultures were scanned at 72 h post-infection, and HCMV cultures were scanned at 7 days post-infection. Each plate contained untreated wells in each media condition (unbuffered or buffered) as a baseline. Test Composition in unbuffered medium, Test Composition in buffered medium, cidofovir positive control (CDV; for VZV) or ganciclovir positive control (GCV; for HCMV) in unbuffered medium, and CDV (for VZV) or GCV (for HCMV) in buffered medium. All graphs, EC50, and CC50 calculations were performed using GraphPad. Test Composition concentrations ranged from 3.2 μM to 50 mM in a 1:5 dilution series based on Lysine concentrations. Cidofovir concentrations ranged from 0.00128 to 20 μM in a 1:5 dilution series. Ganciclovir concentrations ranged from 0.0064 to 100 μM in a 1:5 dilution series.

ARPE-19 cells = test: Cell effect in absence of virus assay, ARPE-19 cells, 72 h, Neutral Red; format: cell-based; details: ARPE-19, Buffered DMEM
[2] = as above; format: cell-based; details: human, ARPE-19 cells, ARPE-19, Unbuffered DMEM
[3] = tested on: human foreskin fibroblasts (HFFs); details: Buffered DMEM, 7 d
Procedure: (§6) For the cell effect in absence of virus assay, ARPE-19 cells or HFFs were seeded into 96-well plates and grown for 72 h as described above. Cells were treated with Test Composition in either unbuffered or buffered medium ranging from 1 μM to 100 mM (1:10 dilution). Cidofovir was tested in a range from 0.001 to 100 μM (1:10 dilution). Ganciclovir was tested in a range from 0.002 to 200 μM (1:10 dilution). ARPE-19 cells were treated with Test Composition or Cidofovir for 72 h, then cells were stained with Neutral Red dye and absorbance was measured at 540 nm. HFFs were treated with original Test Composition or Ganciclovir for 7 d, then cells were stained with Neutral Red dye and absorbance was measured at 540 nm.

HCMV-eGFP-fLuc = test: HCMV bioluminescence dose-response assay in HFFs; format: cell-based, human cytomegalovirus; details: unbuffered and buffered medium
Procedure: as §4, §5

in vitro [4] = details: human, human foreskin fibroblasts (HFFs)
Procedure: as §6

[5] = in vivo; cited from earlier work
[6] = adults; cited from earlier work

**Q.** Which “efficacy against HSV-1 (in words)” value (HSV-1 R8411) does the source give for Nc1nc2c(ncn2COCCO)c(=O)[nH]1 [Acyclovir, acyclovir] here?
**A.** The value was “worked”.

**Q.** And the “efficacy against HSV-1 (in words)” value (HSV-1 R8411; listed as acyclovir)?
**A.** The value was “effective”.

**Q.** What about the EC50 (HSV-1 R8411; HSV-1, ARPE-19, Buffered DMEM (sodium bicarbonate)) of the same compound?
**A.** Its EC50 is 0.156 µM.

**Q.** And the EC50 (HSV-1 R8411; HSV-1, ARPE-19, Unbuffered DMEM, Lysine equivalent concentration)?
**A.** Its EC50 is 0.645 µM.

**Q.** What about the EC50 (HSV-1 R8411; Table 10, HSV1, ARPE-19, buffered medium, curves plotted as L-lysine HCl or acyclovir concentration (uM), FIG. 5) of the same compound?
**A.** The EC50 was 0.225 µM.

**Q.** And the “SI (CC50/EC50)” value (HSV-1 R8411)?
**A.** Its value is 444.44.

**Q.** What about the “efficacy against HSV-2 (in words)” value (HSV-2-Luc) of the same compound?
**A.** The value was “worked”.

**Q.** What about the “efficacy against HSV-2 (in words)” value (HSV-2-Luc; listed as acyclovir) of the same compound?
**A.** Its value is “effective”.

**Q.** And the EC50 (HSV-2-Luc; HSV-2, ARPE-19, Buffered DMEM)?
**A.** Its EC50 is 6.66 µM.

**Q.** What about the EC50 (HSV-2-Luc; HSV-2, ARPE-19, Unbuffered DMEM) of the same compound?
**A.** Its EC50 is 7.89 µM.

**Q.** And the EC50 (HSV-2-Luc; Table 10, HSV2, ARPE-19, buffered medium, curves plotted as L-lysine HCl or acyclovir concentration (uM), FIG. 6)?
**A.** Its EC50 is 33.1 µM.

**Q.** And the “SI (CC50/EC50)” value (HSV-2-Luc)?
**A.** The value was 3.02.

**Q.** And the CC50 at 24 h (in vitro [1])?
**A.** The CC50 at 24 h was no less than 100 µM.

**Q.** Which “efficacy against VZV (in words)” value (VZV-ORF57-Luc; ARPE-19, unbuffered and buffered medium) does the source give for Nc1ccn(C[C@@H](CO)OCP(=O)(O)O)c(=O)n1 [Cidofovir, cidofovir] here?
**A.** Its value is “effective”.

**Q.** What about the EC50 (VZV-ORF57-Luc; VZV, ARPE-19, Buffered DMEM) of the same compound?
**A.** The EC50 was 19 µM.

**Q.** What about the EC50 (VZV-ORF57-Luc; VZV, ARPE-19, Unbuffered DMEM) of the same compound?
**A.** Its EC50 is 1.72 µM.

**Q.** What about the “increase of EC50 in buffered medium versus unbuffered medium” value (VZV-ORF57-Luc; VZV) of the same compound?
**A.** The value was 10 fold.

**Q.** And the “SI (CC50/EC50)” value (VZV-ORF57-Luc; VZV, Buffered DMEM)?
**A.** Its value is 5.3.

**Q.** And the “SI (CC50/EC50)” value (VZV-ORF57-Luc; VZV, Unbuffered DMEM)?
**A.** The value was 58.2.

**Q.** What about the CC50 (ARPE-19 cells) of the same compound?
**A.** The CC50 was greater than 100 µM.

**Q.** What about the CC50 at 72 h [2] of the same compound?
**A.** Its CC50 at 72 h is greater than 100 µM.

**Q.** For Nc1nc(O)c2ncn(COC(CO)CO)c2n1 [Ganciclovir, ganciclovir], which CC50 [3] is on record?
**A.** Its CC50 is greater than 200 µM.

**Q.** And the “efficacy against HCMV (in words)” value (HCMV-eGFP-fLuc)?
**A.** Its value is “not effective”.

**Q.** What about the CC50 at 7 d (in vitro [4]) of the same compound?
**A.** Its CC50 at 7 d is greater than 200 µM.

**Q.** With Cl.NCCCC[C@H](N)C(=O)O [Solution 2, L-lysine monohydrochloride] as the compound, how does the “rank of efficacy among test solutions 1-11 against HSV1” value (HSV-1 R8411; ARPE-19, buffered medium) read?
**A.** The value was “least effective”.

**Q.** And the “SI (CC50/EC50)” value (HSV-1 R8411)?
**A.** The value was 5.

**Q.** And the “rank of efficacy among test solutions 1-11 against HSV2” value (HSV-2-Luc; ARPE-19, buffered medium)?
**A.** The value was “least effective”.

**Q.** And the “SI (CC50/EC50)” value (HSV-2-Luc)?
**A.** The value was 2.5.

**Q.** With CC(C)[C@H](N)C(=O)OCCOCn1cnc2c(=O)[nH]c(N)nc21 [Valacyclovir] as the compound, how does the fraction eliminated renally [5] read?
**A.** Its fraction eliminated renally is 89%.

**Q.** Which intake usually safe [6] does the source give for Cc1ncc(CO)c(CO)c1O [Vitamin B6, Pyridoxine] here?
**A.** Its intake usually safe is “up to 200 mg per day”.
